Assay results taken from the NIST ThermoML archive (doi:10.1007/s10765-009-0602-6).
Numbers after ± are expanded uncertainties.

Test: molar heat capacity at constant volume; xn = mol fraction of the nth substance listed
Conditions: x1 = 0.2607

N [ammonia] + O
Conditions | molar heat capacity at constant volume [J/K/mol]
581.09 K, Fluid (supercritical or subcritical phases), Mass density=476.25 kg/m3, isochoric heat capacity | 67.71 ± 2.7
581.18 K, Fluid (supercritical or subcritical phases), Mass density=476.25 kg/m3, isochoric heat capacity | 67.34 ± 2.7
581.36 K, Fluid (supercritical or subcritical phases), Mass density=476.25 kg/m3, isochoric heat capacity | 66.28 ± 2.6
581.54 K, Fluid (supercritical or subcritical phases), Mass density=476.25 kg/m3, isochoric heat capacity | 66.75 ± 2.7
581.62 K, Fluid (supercritical or subcritical phases), Mass density=476.25 kg/m3, isochoric heat capacity | 66.08 ± 2.6
584.62 K, Fluid (supercritical or subcritical phases), Mass density=476.25 kg/m3, isochoric heat capacity | 65.81 ± 2.6
584.71 K, Fluid (supercritical or subcritical phases), Mass density=476.25 kg/m3, isochoric heat capacity | 65.01 ± 2.6
584.8 K, Fluid (supercritical or subcritical phases), Mass density=476.25 kg/m3, isochoric heat capacity | 64.64 ± 2.6
584.88 K, Fluid (supercritical or subcritical phases), Mass density=476.25 kg/m3, isochoric heat capacity | 65.32 ± 2.6
584.95 K, Fluid (supercritical or subcritical phases), Mass density=456.58 kg/m3, isochoric heat capacity | 82.04 ± 3.3
584.95 K, Liquid, Isochoric heat capacity | 82.04 ± 3.3
584.97 K, Fluid (supercritical or subcritical phases), Mass density=476.25 kg/m3, isochoric heat capacity | 65.26 ± 2.6
584.98 K, Fluid (supercritical or subcritical phases), Mass density=456.58 kg/m3, isochoric heat capacity | 80.98 ± 3.2
585.15 K, Fluid (supercritical or subcritical phases), Mass density=476.25 kg/m3, isochoric heat capacity | 64.62 ± 2.6
585.16 K, Fluid (supercritical or subcritical phases), Mass density=456.58 kg/m3, isochoric heat capacity | 80.57 ± 3.2
585.31 K, Fluid (supercritical or subcritical phases), Mass density=120.03 kg/m3, isochoric heat capacity | 115.43 ± 5.2
585.31 K, Liquid, Isochoric heat capacity | 115.43 ± 4.6
585.34 K, Fluid (supercritical or subcritical phases), Mass density=120.03 kg/m3, isochoric heat capacity | 110.25 ± 5
585.4 K, Fluid (supercritical or subcritical phases), Mass density=120.03 kg/m3, isochoric heat capacity | 96.96 ± 4.1
585.42 K, Fluid (supercritical or subcritical phases), Mass density=456.58 kg/m3, isochoric heat capacity | 79.9 ± 3.2
585.48 K, Fluid (supercritical or subcritical phases), Mass density=120.03 kg/m3, isochoric heat capacity | 94.87 ± 4.1
585.5 K, Fluid (supercritical or subcritical phases), Mass density=456.58 kg/m3, isochoric heat capacity | 80.27 ± 3.2
585.62 K, Fluid (supercritical or subcritical phases), Mass density=120.03 kg/m3, isochoric heat capacity | 76.93 ± 3.4
585.68 K, Fluid (supercritical or subcritical phases), Mass density=456.58 kg/m3, isochoric heat capacity | 78.28 ± 3.1
585.94 K, Fluid (supercritical or subcritical phases), Mass density=120.03 kg/m3, isochoric heat capacity | 64.29 ± 2.8
586.02 K, Fluid (supercritical or subcritical phases), Mass density=120.03 kg/m3, isochoric heat capacity | 59.53 ± 2.5
586.11 K, Fluid (supercritical or subcritical phases), Mass density=120.03 kg/m3, isochoric heat capacity | 58.12 ± 2.4
586.2 K, Fluid (supercritical or subcritical phases), Mass density=120.03 kg/m3, isochoric heat capacity | 53.99 ± 2.3
586.28 K, Fluid (supercritical or subcritical phases), Mass density=120.03 kg/m3, isochoric heat capacity | 54.52 ± 2.3
586.37 K, Fluid (supercritical or subcritical phases), Mass density=120.03 kg/m3, isochoric heat capacity | 51.14 ± 2.1
587.06 K, Fluid (supercritical or subcritical phases), Mass density=456.58 kg/m3, isochoric heat capacity | 75.4 ± 3
587.24 K, Fluid (supercritical or subcritical phases), Mass density=456.58 kg/m3, isochoric heat capacity | 75.97 ± 3
587.41 K, Fluid (supercritical or subcritical phases), Mass density=456.58 kg/m3, isochoric heat capacity | 75.31 ± 3
587.5 K, Fluid (supercritical or subcritical phases), Mass density=456.58 kg/m3, isochoric heat capacity | 74.46 ± 3
587.58 K, Fluid (supercritical or subcritical phases), Mass density=456.58 kg/m3, isochoric heat capacity | 76.18 ± 3.1
594.14 K, Fluid (supercritical or subcritical phases), Mass density=147.43 kg/m3, isochoric heat capacity | 103.92 ± 4.4
594.14 K, Liquid, Isochoric heat capacity | 103.92 ± 4.2
594.15 K, Fluid (supercritical or subcritical phases), Mass density=147.43 kg/m3, isochoric heat capacity | 93.04 ± 3.7
594.23 K, Fluid (supercritical or subcritical phases), Mass density=147.43 kg/m3, isochoric heat capacity | 91.23 ± 3.9
594.32 K, Fluid (supercritical or subcritical phases), Mass density=147.43 kg/m3, isochoric heat capacity | 82.61 ± 3.6
594.49 K, Fluid (supercritical or subcritical phases), Mass density=147.43 kg/m3, isochoric heat capacity | 80.43 ± 3.5
594.58 K, Fluid (supercritical or subcritical phases), Mass density=120.03 kg/m3, isochoric heat capacity | 43.51 ± 1.8
594.58 K, Fluid (supercritical or subcritical phases), Mass density=147.43 kg/m3, isochoric heat capacity | 67.31 ± 2.9
594.66 K, Fluid (supercritical or subcritical phases), Mass density=120.03 kg/m3, isochoric heat capacity | 46.88 ± 1.9
594.66 K, Fluid (supercritical or subcritical phases), Mass density=147.43 kg/m3, isochoric heat capacity | 62.24 ± 2.6
594.75 K, Fluid (supercritical or subcritical phases), Mass density=120.03 kg/m3, isochoric heat capacity | 46.35 ± 1.9
594.75 K, Fluid (supercritical or subcritical phases), Mass density=147.43 kg/m3, isochoric heat capacity | 60.82 ± 2.5
594.78 K, Fluid (supercritical or subcritical phases), Mass density=120.03 kg/m3, isochoric heat capacity | 43.67 ± 1.8
594.84 K, Fluid (supercritical or subcritical phases), Mass density=147.43 kg/m3, isochoric heat capacity | 66.35 ± 2.8
594.92 K, Fluid (supercritical or subcritical phases), Mass density=147.43 kg/m3, isochoric heat capacity | 53.4 ± 2.2
595.01 K, Fluid (supercritical or subcritical phases), Mass density=120.03 kg/m3, isochoric heat capacity | 47.77 ± 1.9
595.09 K, Fluid (supercritical or subcritical phases), Mass density=147.43 kg/m3, isochoric heat capacity | 56.72 ± 2.3
595.1 K, Fluid (supercritical or subcritical phases), Mass density=456.58 kg/m3, isochoric heat capacity | 70.87 ± 2.8
595.16 K, Fluid (supercritical or subcritical phases), Mass density=376.89 kg/m3, isochoric heat capacity | 99.09 ± 4
595.16 K, Liquid, Isochoric heat capacity | 99.09 ± 4
595.18 K, Fluid (supercritical or subcritical phases), Mass density=147.43 kg/m3, isochoric heat capacity | 52.64 ± 2.1
595.18 K, Fluid (supercritical or subcritical phases), Mass density=376.89 kg/m3, isochoric heat capacity | 96.84 ± 3.9
595.18 K, Fluid (supercritical or subcritical phases), Mass density=456.58 kg/m3, isochoric heat capacity | 70.11 ± 2.8
595.27 K, Fluid (supercritical or subcritical phases), Mass density=376.89 kg/m3, isochoric heat capacity | 95.54 ± 3.8
595.35 K, Fluid (supercritical or subcritical phases), Mass density=456.58 kg/m3, isochoric heat capacity | 71.12 ± 2.8
595.44 K, Fluid (supercritical or subcritical phases), Mass density=147.43 kg/m3, isochoric heat capacity | 50.03 ± 2
595.44 K, Fluid (supercritical or subcritical phases), Mass density=376.89 kg/m3, isochoric heat capacity | 96.07 ± 3.8
595.44 K, Fluid (supercritical or subcritical phases), Mass density=456.58 kg/m3, isochoric heat capacity | 68.76 ± 2.8
595.53 K, Fluid (supercritical or subcritical phases), Mass density=376.89 kg/m3, isochoric heat capacity | 92.7 ± 3.7
595.53 K, Fluid (supercritical or subcritical phases), Mass density=456.58 kg/m3, isochoric heat capacity | 71.34 ± 2.9
595.61 K, Fluid (supercritical or subcritical phases), Mass density=376.89 kg/m3, isochoric heat capacity | 94.85 ± 3.8
595.61 K, Fluid (supercritical or subcritical phases), Mass density=456.58 kg/m3, isochoric heat capacity | 68.53 ± 2.7
595.7 K, Fluid (supercritical or subcritical phases), Mass density=147.43 kg/m3, isochoric heat capacity | 52.76 ± 2.1
595.7 K, Fluid (supercritical or subcritical phases), Mass density=456.58 kg/m3, isochoric heat capacity | 70.96 ± 2.8
595.78 K, Fluid (supercritical or subcritical phases), Mass density=376.89 kg/m3, isochoric heat capacity | 89.45 ± 3.6
595.87 K, Fluid (supercritical or subcritical phases), Mass density=376.89 kg/m3, isochoric heat capacity | 91.17 ± 3.6
595.96 K, Fluid (supercritical or subcritical phases), Mass density=376.89 kg/m3, isochoric heat capacity | 88.44 ± 3.5
597.16 K, Fluid (supercritical or subcritical phases), Mass density=376.89 kg/m3, isochoric heat capacity | 87.9 ± 3.5
597.35 K, Fluid (supercritical or subcritical phases), Mass density=160.07 kg/m3, isochoric heat capacity | 101.99 ± 4.1
597.36 K, Liquid, Isochoric heat capacity | 101.99 ± 4.1
597.38 K, Fluid (supercritical or subcritical phases), Mass density=160.07 kg/m3, isochoric heat capacity | 81.69 ± 3.3
597.43 K, Fluid (supercritical or subcritical phases), Mass density=160.07 kg/m3, isochoric heat capacity | 69.47 ± 2.8
597.5 K, Fluid (supercritical or subcritical phases), Mass density=376.89 kg/m3, isochoric heat capacity | 85.95 ± 3.4
597.53 K, Fluid (supercritical or subcritical phases), Mass density=160.07 kg/m3, isochoric heat capacity | 62.62 ± 2.5
597.56 K, Fluid (supercritical or subcritical phases), Mass density=342.18 kg/m3, isochoric heat capacity | 110.99 ± 4.4
597.56 K, Liquid, Isochoric heat capacity | 110.99 ± 4.4
